From the supplement of paper PMC11208160 come the findings set out here.

The data set in a line: recombinant UMI read abundance after kanamycin selection (control-corrected) (log10(CPM+1)); higher = more efficient recombination; extreme values may be limits of the assay; sequences stand for … in AGTGCAGAGAAAATCGGCCAGTTTTCTCTGCCTGCAGTCCGCATGCCGTGGGACCCCTTGGGTTCTAACCTGTTGCCTAGATTTATGCAGCGGACTGCCTTTCTCCCAAAGTGATAAACCGG…AGGTTGGTTTCACT; site = the 11-nt donor. In short, it runs like this:
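Values are reported as log10(CPM+1), obtained by converting sequencing counts to CPM, averaging replicates and scaling by control-derived factors. The counts came from recombinant UMIs amplified by PCR across the donor–target junction. These UMIs came from a pooled Escherichia coli screen of donor and donor-binding-loop pairs for the IS621 bridge recombinase, plated with IPTG (0.07 mM) plus kanamycin or left unselected, in two replicates each.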
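Also: IS621 bridge recombinase in Escherichia coli cells against a fixed T5 target plasmid.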

Turning to “TCATACTCATGGACCGGTTTTCCCGGTAATCCGTATTTGGA (site TCATACTCTTC)”, the “recombinant UMI read abundance (log10)” value was found to be 1.76.

Consider “TCATACTCATGGACCGGTTTTCCCGGTAATCCGTATTTGGA (site TCATACTCTTG)”, for which the “recombinant UMI read abundance (log10)” value stood at 0.

For the sequence “TCATACTCATGGACCGGTTTTCCCGGTAATCCGTATTTGGA (site TCATACTCTTT)”, the “recombinant UMI read abundance (log10)” value stood at 1.17.

Consider “TCATACTCATGGACCGGTTTTCCCGGTAATCCGTATTTGTA (site TCATACTCTTA)”, for which the “recombinant UMI read abundance (log10)” value came to 1.51.

Regarding “TCATACTCATGGACCGGTTTTCCCGGTAATCCGTATTTGTA (site TCATACTCTTC)”, the “recombinant UMI read abundance (log10)” value amounted to 0.00471.

Regarding “TCATACTCATGGACCGGTTTTCCCGGTAATCCGTATTTGTA (site TCATACTCTTG)”, the “recombinant UMI read abundance (log10)” value came out at 0.

Consider “TCATACTCATGGACCGGTTTTCCCGGTAATCCGTATTTGTA (site TCATACTCTTT)”, for which the “recombinant UMI read abundance (log10)” value is 0.299.

On to “TCATAGACATGGACCGGTTTTCCCGGTAATCCGTATTTGAC (site TCATAGACTGT)”, for which the “recombinant UMI read abundance (log10)” value amounted to 0.421.

“TCATAGGCATGGACCGGTTTTCCCGGTAATCCGTATTTGTT (site TCATAGGCTAA)”: the “recombinant UMI read abundance (log10)” value stood at 1.27.

“TCATAGTCATGGACCGGTTTTCCCGGTAATCCGTATTTGCA (site TCATAATCTTG)”: the “recombinant UMI read abundance (log10)” value was 2.41.

With “TCATAGTCATGGACCGGTTTTCCCGGTAATCCGTATTTGCA (site TCATACTCTTG)”, the “recombinant UMI read abundance (log10)” value turned out to be 0.653.

Take “TCATAGTCATGGACCGGTTTTCCCGGTAATCCGTATTTGCA (site TCATAGTCTTG)”: the “recombinant UMI read abundance (log10)” value worked out at 2.25.

Consider “TCATAGTCATGGACCGGTTTTCCCGGTAATCCGTATTTGCA (site TCATATTCTTG)”, for which the “recombinant UMI read abundance (log10)” value was 0.

With “TCATCCTCATGGACCGGTTTTCCCGGTAATCCGTATTTGAA (site TCATCCTCTTT)”, the “recombinant UMI read abundance (log10)” value is 1.05.

With “TCATCGTCATGGACCGGTTTTCCCGGTAATCCGTATTTGAA (site TCATCGTCTTT)”, the “recombinant UMI read abundance (log10)” value came out at 0.467.

Regarding “TCATGCCCATGGACCGGTTTTCCCGGTAATCCGTATTTGGC (site TCATGCCCTGC)”, the “recombinant UMI read abundance (log10)” value is 0.

Consider “TCATTATCATGGACCGGTTTTCCCGGTAATCCGTATTTGCA (site TCATTATCTTG)”, for which the “recombinant UMI read abundance (log10)” value amounted to 1.7.

In the case of “TCATTCTCATGGACCGGTTTTCCCGGTAATCCGTATTTGCT (site TCATTCTCTAG)”, the “recombinant UMI read abundance (log10)” value was determined as 0.981.

“TCATTGCCATGGACCGGTTTTCCCGGTAATCCGTATTTGAG (site TCATTGCCTCT)”: the “recombinant UMI read abundance (log10)” value came out at 0.00408.

“TCATTTACATGGACCGGTTTTCCCGGTAATCCGTATTTGGA (site TCATTTACTTC)”: the “recombinant UMI read abundance (log10)” value was determined as 0.164.

In the case of “TCCAATACATGGACCGGTTTTCCCGGTAATCCGTATTTGCC (site TCCAATACTGG)”, the “recombinant UMI read abundance (log10)” value is 0.

Turning to “TCCAATACATGGACCGGTTTTCCCGGTAATCCGTATTTGCC (site TCCAATCCTGG)”, the “recombinant UMI read abundance (log10)” value is 0.

With “TCCAATACATGGACCGGTTTTCCCGGTAATCCGTATTTGCC (site TCCAATGCTGG)”, the “recombinant UMI read abundance (log10)” value is 0.

“TCCAATACATGGACCGGTTTTCCCGGTAATCCGTATTTGCC (site TCCAATTCTGG)”: the “recombinant UMI read abundance (log10)” value came to 0.

On to “TCCAATCCATGGACCGGTTTTCCCGGTAATCCGTATTTGCC (site TCCAATACTGG)”, for which the “recombinant UMI read abundance (log10)” value was determined as 0.

On to “TCCAATCCATGGACCGGTTTTCCCGGTAATCCGTATTTGCC (site TCCAATCCTGG)”, for which the “recombinant UMI read abundance (log10)” value was 0.

With “TCCAATCCATGGACCGGTTTTCCCGGTAATCCGTATTTGCC (site TCCAATGCTGG)”, the “recombinant UMI read abundance (log10)” value is 0.

As to “TCCAATCCATGGACCGGTTTTCCCGGTAATCCGTATTTGCC (site TCCAATTCTGG)”, the “recombinant UMI read abundance (log10)” value was found to be 0.

As to “TCCAATTCATGGACCGGTTTTCCCGGTAATCCGTATTTGGC (site TCCAATTCTGA)”, the “recombinant UMI read abundance (log10)” value was found to be 0.

For the sequence “TCCAATTCATGGACCGGTTTTCCCGGTAATCCGTATTTGGC (site TCCAATTCTGC)”, the “recombinant UMI read abundance (log10)” value was determined as 0.

Consider “TCCAATTCATGGACCGGTTTTCCCGGTAATCCGTATTTGGC (site TCCAATTCTGG)”, for which the “recombinant UMI read abundance (log10)” value is 0.

For the sequence “TCCAATTCATGGACCGGTTTTCCCGGTAATCCGTATTTGGC (site TCCAATTCTGT)”, the “recombinant UMI read abundance (log10)” value came out at 0.

Consider “TCCACCGCATGGACCGGTTTTCCCGGTAATCCGTATTTGCT (site TCCACCGCTAG)”, for which the “recombinant UMI read abundance (log10)” value was 0.

In the case of “TCCACCGCATGGACCGGTTTTCCCGGTAATCCGTATTTGCT (site TCCACCGCTCG)”, the “recombinant UMI read abundance (log10)” value came to 0.0171.

For “TCCACCGCATGGACCGGTTTTCCCGGTAATCCGTATTTGCT (site TCCACCGCTGG)”, the “recombinant UMI read abundance (log10)” value came to 0.

In the case of “TCCACCGCATGGACCGGTTTTCCCGGTAATCCGTATTTGCT (site TCCACCGCTTG)”, the “recombinant UMI read abundance (log10)” value worked out at 0.

“TCCACGCCATGGACCGGTTTTCCCGGTAATCCGTATTTGCC (site TCCACGCCTGG)”: the “recombinant UMI read abundance (log10)” value was 0.

For the sequence “TCCACTTCATGGACCGGTTTTCCCGGTAATCCGTATTTGAG (site TCCACTTCTCT)”, the “recombinant UMI read abundance (log10)” value turned out to be 0.0133.

On to “TCCAGTGCATGGACCGGTTTTCCCGGTAATCCGTATTTGGT (site TCCAGTGCTAC)”, for which the “recombinant UMI read abundance (log10)” value was 0.00561.

For “TCCATAGCATGGACCGGTTTTCCCGGTAATCCGTATTTGTA (site TCCATAGCTTA)”, the “recombinant UMI read abundance (log10)” value stood at 0.0478.

For “TCCATTTCATGGACCGGTTTTCCCGGTAATCCGTATTTGCC (site TCCAATTCTGG)”, the “recombinant UMI read abundance (log10)” value worked out at 0.

For “TCCATTTCATGGACCGGTTTTCCCGGTAATCCGTATTTGCC (site TCCACTTCTGG)”, the “recombinant UMI read abundance (log10)” value came out at 0.

On to “TCCATTTCATGGACCGGTTTTCCCGGTAATCCGTATTTGCC (site TCCAGTTCTGG)”, for which the “recombinant UMI read abundance (log10)” value came to 0.

As for “TCCCAATCATGGACCGGTTTTCCCGGTAATCCGTATTTGTG (site TCCCAATCTCA)”, the “recombinant UMI read abundance (log10)” value worked out at 0.00796.

On to “TCCCACCCATGGACCGGTTTTCCCGGTAATCCGTATTTGAG (site TCCCACCCTCT)”, for which the “recombinant UMI read abundance (log10)” value came to 0.00907.

Consider “TCCCATCCATGGACCGGTTTTCCCGGTAATCCGTATTTGGC (site TCCCATCCTGC)”, for which the “recombinant UMI read abundance (log10)” value amounted to 0.

Consider “TCCCCAACATGGACCGGTTTTCCCGGTAATCCGTATTTGTC (site TCCCCAACTGA)”, for which the “recombinant UMI read abundance (log10)” value is 0.

Regarding “TCCCCTGCATGGACCGGTTTTCCCGGTAATCCGTATTTGAT (site TCCCCTGCTAT)”, the “recombinant UMI read abundance (log10)” value is 0.00458.

On to “TCCCGACCATGGACCGGTTTTCCCGGTAATCCGTATTTGAG (site TCCCGACCTCT)”, for which the “recombinant UMI read abundance (log10)” value was 0.00764.

In the case of “TCCCGGACATGGACCGGTTTTCCCGGTAATCCGTATTTGTC (site TCCCGGACTGA)”, the “recombinant UMI read abundance (log10)” value came to 0.905.

As for “TCCCGTTCATGGACCGGTTTTCCCGGTAATCCGTATTTGAA (site TCCCGTTCTTT)”, the “recombinant UMI read abundance (log10)” value is 0.

On to “TCCCTACCATGGACCGGTTTTCCCGGTAATCCGTATTTGAT (site TCCCTACCTAT)”, for which the “recombinant UMI read abundance (log10)” value stood at 0.

With “TCCCTTCCATGGACCGGTTTTCCCGGTAATCCGTATTTGAG (site TCCCTTCCTCT)”, the “recombinant UMI read abundance (log10)” value stood at 0.0101.

As for “TCCGATGCATGGACCGGTTTTCCCGGTAATCCGTATTTGTT (site TCCGATGCTAA)”, the “recombinant UMI read abundance (log10)” value was 0.

In the case of “TCCGGGCCATGGACCGGTTTTCCCGGTAATCCGTATTTGAC (site TCCGGGCCTGT)”, the “recombinant UMI read abundance (log10)” value was determined as 0.

“TCCGTCCCATGGACCGGTTTTCCCGGTAATCCGTATTTGCA (site TCCGTCCCTTG)”: the “recombinant UMI read abundance (log10)” value is 0.

“TCCTAATCATGGACCGGTTTTCCCGGTAATCCGTATTTGTT (site TCCTAATCTAA)”: the “recombinant UMI read abundance (log10)” value amounted to 0.

On to “TCCTAGACATGGACCGGTTTTCCCGGTAATCCGTATTTGGG (site ACCTAGACTCC)”, for which the “recombinant UMI read abundance (log10)” value is 0.034.

In the case of “TCCTAGACATGGACCGGTTTTCCCGGTAATCCGTATTTGGG (site CCCTAGACTCC)”, the “recombinant UMI read abundance (log10)” value is 0.0212.

On to “TCCTAGACATGGACCGGTTTTCCCGGTAATCCGTATTTGGG (site GCCTAGACTCC)”, for which the “recombinant UMI read abundance (log10)” value was found to be 0.0199.

Turning to “TCCTAGACATGGACCGGTTTTCCCGGTAATCCGTATTTGGG (site TCCTAGACTCC)”, the “recombinant UMI read abundance (log10)” value was 0.00458.

On to “TCCTAGTCATGGACCGGTTTTCCCGGTAATCCGTATTTGTA (site TCCTAGTCTTA)”, for which the “recombinant UMI read abundance (log10)” value came out at 0.256.

As to “TCCTATACATGGACCGGTTTTCCCGGTAATCCGTATTTGGA (site TCCTATACTTC)”, the “recombinant UMI read abundance (log10)” value is 0.0113.

As to “TCCTCATCATGGACCGGTTTTCCCGGTAATCCGTATTTGGA (site TCCTCATCTTC)”, the “recombinant UMI read abundance (log10)” value amounted to 0.00521.

“TCCTTATCATGGACCGGTTTTCCCGGTAATCCGTATTTGTT (site TCCTTATCTAA)”: the “recombinant UMI read abundance (log10)” value came out at 0.

As for “TCCTTTGCATGGACCGGTTTTCCCGGTAATCCGTATTTGTG (site TCCTTTGCTCA)”, the “recombinant UMI read abundance (log10)” value was 0.0203.

For “TCGAAAACATGGACCGGTTTTCCCGGTAATCCGTATTTGTT (site TCGAAAACTAA)”, the “recombinant UMI read abundance (log10)” value stood at 0.

In the case of “TCGAATTCATGGACCGGTTTTCCCGGTAATCCGTATTTGCC (site TCAAATTCTGG)”, the “recombinant UMI read abundance (log10)” value came to 0.
